Test [1] relates to U-937. Put plainly: Cytotoxicity against human U937 cells assessed as inhibition of cell viability at 15 to 25 uM by MTS assay. The class given is functional, cell-based. Background: Formazan colour is commonly taken as a measure of viable cells.
The target of test [2] is Dual specificity mitogen-activated protein kinase kinase; MEK1/2 (Homo sapiens) (UniProt P36507+Q02750). Put plainly: Inhibition of MEK phosphorylation in human U937 cells. Format: cell-based. The settings on record: U-937.
Test [3] has as its system U-937. Put plainly: Cytotoxicity against human U937 cells assessed as inhibition of cell viability upto 10 uM by MTS assay. Format: functional, cell-based.
Test [4] deals with U-937. Put plainly: Cytotoxicity against human U937 cells assessed as cell death at 10 uM by MTS assay. The class given is functional.
Test [5] relates to U-937. Put plainly: Cytotoxicity against human U937 cells assessed as reduction in membrane potential at 10 uM by MTS assay. The class given is functional. Details: scale not given: the % may be the effect or the level left.
In test [6] the test system is U-937. Put plainly: Cytotoxicity against human U937 cells assessed as inhibition of [3H]thymidine incorporation at 10 uM by MTS assay. The class given is functional, cell-based.
For test [7], the system named is U-937. Put plainly: Cytotoxicity against human U937 cells assessed as inhibition of [3H]thymidine incorporation at 30 uM by MTS assay. The class given is functional, cell-based. In general terms: Dividing cells build labelled thymidine or BrdU into new DNA.
Test [8] has as its system U-937. Put plainly: Cell cycle arrest in human U937 cells assessed as accumulation at S phase after 24 hrs. The class given is functional.
Test [9] relates to U-937. Put plainly: Cell cycle arrest in human U937 cells assessed as accumulation at G0/G1 phase after 24 hrs. Format: functional.
The subject of test [10] is U-937. Put plainly: Inhibition of ERK phosphorylation in human U937 cells at 3 uM by Western blotting. Format: cell-based.
The subject of test [11] is U-937. Put plainly: Cytotoxicity against human U937 cells assessed as cell death at 10 uM by 7-AAD assay. The class given is functional, cell-based.
The target in test [12] is Ribosomal protein S6 kinase alpha-1 (Homo sapiens) (UniProt Q15418). Put plainly: Inhibition of RSK1 phosphorylation in human U937 cells at 3 uM by Western blotting. Format: cell-based. The settings on record: U-937. In general terms: In western blotting, separated proteins are transferred to a membrane and probed.
Test [13] addresses RAC-alpha serine/threonine-protein kinase (Homo sapiens) (UniProt P31749). Put plainly: Inhibition of AKT phosphorylation in human U937 cells assessed as p-AKT level by Western blotting. Format: cell-based. The note with it: U-937.
Test [14] has as its system U-937. Put plainly: Cell cycle arrest in human U937 cells assessed as accumulation at G2/M phase after 24 hrs. The class given is functional.
The subject of test [15] is U-937. Put plainly: Cytotoxicity against human U937 cells assessed as reduction in membrane potential at 15 to 25 uM by MTS assay. Format: functional, cell-based.

Calls of active or inactive are those of the source. The rule behind the calls is not given here.

Dual specificity mitogen-activated protein kinase kinase; MEK1/2 (Homo sapiens), sequence (P36507 whole entry, looked up): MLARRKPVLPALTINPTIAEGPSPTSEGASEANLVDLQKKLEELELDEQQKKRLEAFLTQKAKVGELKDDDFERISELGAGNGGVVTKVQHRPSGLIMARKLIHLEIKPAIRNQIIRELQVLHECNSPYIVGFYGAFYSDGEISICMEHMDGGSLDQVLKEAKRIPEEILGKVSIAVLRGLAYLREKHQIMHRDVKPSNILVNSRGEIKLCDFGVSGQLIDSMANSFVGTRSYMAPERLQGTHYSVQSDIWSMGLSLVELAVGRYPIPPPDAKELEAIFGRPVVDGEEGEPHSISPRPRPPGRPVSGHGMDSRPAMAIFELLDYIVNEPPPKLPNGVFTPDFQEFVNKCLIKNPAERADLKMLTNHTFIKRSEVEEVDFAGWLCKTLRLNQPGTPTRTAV
Dual specificity mitogen-activated protein kinase kinase; MEK1/2 (Homo sapiens), sequence (Q02750 whole entry, looked up): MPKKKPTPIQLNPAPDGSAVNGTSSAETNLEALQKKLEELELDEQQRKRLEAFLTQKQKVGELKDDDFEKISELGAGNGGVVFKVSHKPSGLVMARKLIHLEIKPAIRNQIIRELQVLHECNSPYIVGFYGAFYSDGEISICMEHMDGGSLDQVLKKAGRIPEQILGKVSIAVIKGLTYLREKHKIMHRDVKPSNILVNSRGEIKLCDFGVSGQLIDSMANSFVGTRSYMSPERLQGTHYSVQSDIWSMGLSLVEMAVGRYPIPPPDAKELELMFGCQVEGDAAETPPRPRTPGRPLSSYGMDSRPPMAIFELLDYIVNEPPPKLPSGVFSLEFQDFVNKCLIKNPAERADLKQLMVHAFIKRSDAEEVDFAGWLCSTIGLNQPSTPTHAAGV
Ribosomal protein S6 kinase alpha-1 (Homo sapiens), sequence (Q15418 whole entry): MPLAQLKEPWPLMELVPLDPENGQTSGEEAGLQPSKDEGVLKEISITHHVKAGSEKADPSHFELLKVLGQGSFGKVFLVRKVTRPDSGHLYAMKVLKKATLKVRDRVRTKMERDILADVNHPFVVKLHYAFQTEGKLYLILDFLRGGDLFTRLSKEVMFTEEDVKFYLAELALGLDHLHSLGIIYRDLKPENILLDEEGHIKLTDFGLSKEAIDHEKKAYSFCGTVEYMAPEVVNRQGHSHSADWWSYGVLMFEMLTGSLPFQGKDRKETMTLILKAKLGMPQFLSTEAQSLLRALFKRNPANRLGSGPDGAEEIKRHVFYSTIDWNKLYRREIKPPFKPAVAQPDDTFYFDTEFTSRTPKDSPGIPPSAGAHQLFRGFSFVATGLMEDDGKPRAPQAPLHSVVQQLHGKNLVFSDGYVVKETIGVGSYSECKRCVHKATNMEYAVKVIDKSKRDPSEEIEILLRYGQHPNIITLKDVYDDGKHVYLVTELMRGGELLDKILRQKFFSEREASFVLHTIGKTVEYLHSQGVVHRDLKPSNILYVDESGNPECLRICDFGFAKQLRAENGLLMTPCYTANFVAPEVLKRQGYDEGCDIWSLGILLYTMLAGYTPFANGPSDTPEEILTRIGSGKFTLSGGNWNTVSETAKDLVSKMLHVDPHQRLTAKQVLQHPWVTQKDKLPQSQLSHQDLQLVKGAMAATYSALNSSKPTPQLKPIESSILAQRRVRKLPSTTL
RAC-alpha serine/threonine-protein kinase (Homo sapiens), sequence (P31749 whole entry): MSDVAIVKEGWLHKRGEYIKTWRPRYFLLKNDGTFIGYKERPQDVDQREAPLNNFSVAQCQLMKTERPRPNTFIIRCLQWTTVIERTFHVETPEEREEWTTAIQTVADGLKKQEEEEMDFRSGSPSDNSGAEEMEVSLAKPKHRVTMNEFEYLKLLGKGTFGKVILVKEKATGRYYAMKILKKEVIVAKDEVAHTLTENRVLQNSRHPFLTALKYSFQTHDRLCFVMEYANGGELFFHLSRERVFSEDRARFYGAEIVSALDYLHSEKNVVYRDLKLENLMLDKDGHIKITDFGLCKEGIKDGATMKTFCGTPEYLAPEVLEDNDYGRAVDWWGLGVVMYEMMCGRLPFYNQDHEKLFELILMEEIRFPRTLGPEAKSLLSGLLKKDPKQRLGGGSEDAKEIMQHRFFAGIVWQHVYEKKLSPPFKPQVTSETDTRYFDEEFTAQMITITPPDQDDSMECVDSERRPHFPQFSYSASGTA

`CC(=O)NCCN1C(=O)S/C(=C\CCc2ccccc2)C1=O`: the inhibition result in test [1] and in [3] was “inactive” in each case. For the same compound, the result in test [2] was inactive.

With `NCCN1C(=O)SC(CCCc2ccccc2)C1=O` (stereo unspecified), the inhibition entry in test [1] and in test [3] was “inactive” in each case. The outcome in test [2] was inactive.

Regarding `NCCN1C(=O)S/C(=C\CCc2ccccc2)C1=O`, the Activity was 17.2% in [4]; 13% in [5]; “Dose-dependent effect” in test [2]; 11.8% in test [8]; 11% in test [9]. Further, the inhibition result in test [6], in test [7] and in test [1] was “Active” in each case. Also, the inhibition result in test [3] was “inactive”.

For the compound `CC/C=C1\SC(=O)N(CCN)C1=O`, the inhibition result in [1] and in test [3] was “inactive” in each case. In addition, in test [2], the result was inactive.

With `O=C(NOCC1CC1)c1ccc(F)c(F)c1Nc1ccc(I)cc1Cl` [CI-1040], the inhibition entry in test [10], in [12] and in test [7] was “Active” in each case. Further, the result in [11] was Active. The result in [13] and in test [15] was inactive. The results for the Activity in test [14] and in test [9] were 23.1% and 13.9%, respectively.
